{"source": "patent US11738033B2", "about": "“Adjunctive therapy with 25-hydroxyvitamin D and articles therefor” (priority 2014, dated 2023)", "key": {"[1]": {"conditions": "patients with bone metastases; cited from earlier work"}, "[2]": {"assay": "Efficacy study in osteoporosis patients treated with an antiresorptive agent (denosumab)", "type": "in vivo, human", "conditions": "for incidence of hypocalcemia and severity of secondary hyperparathyroidism: once stable dosing has been achieved, denosumab-treated"}, "[3]": {"assay": "Efficacy study in prostate cancer patients treated with denosumab", "type": "in vivo, human", "conditions": "for incidence of hypocalcemia and severity of SHPT and hypercalcemia: once stable dosing has been achieved, denosumab-treated"}, "[4]": {"assay": "Efficacy study in breast cancer patients treated with denosumab", "type": "in vivo, human", "conditions": "for incidence of hypocalcemia and severity of secondary hyperparathyroidism: once stable dosing has been achieved, denosumab-treated"}, "[5]": {"type": "in vivo, human", "conditions": "dose escalation phase, 30 to 300 mcg daily", "description": "At the start of the study, all patients have plasma PTH greater than […] as evidence of SHPT, serum calcium less than 9.8 mg/dL, spot urine Ca:Cr ratio≤0.25 (≤250 mg/g creatinine) and an estimated glomerular filtration rate greater than 15 mL/min/1.73 m^2. […] Denosumab or zoledronic acid are administered according to the typical standard of care for each patient's condition.\nThe 52-week study consists of a 40 week dose escalation phase followed by a 12-week maintenance phase. At the end of the maintenance phase, there is a two-week follow up phase. At the start of the study, all patients receive an initial daily dose of 30 mcg 25-hydroxyvitamin D3, which is increased at four-week intervals over the course of the dose escalation phase up to a maximum daily dose of 300 mcg. The daily dose achieved by the end of the dose escalation study is the daily dose administered during the maintenance phase.\nBlood samples are collected at 2-week intervals for monitoring serum levels of calcium and phosphorus. […] Serum vitamin D metabolites and markers of bone metabolism, immune function, and tumor burden are measured at the beginning of the dose escalation phase and at the beginning and end of the maintenance phase. […] The genotype of vitamin D binding protein is determined for each subject at the beginning of the dose escalation phase."}, "[6]": {"assay": "Efficacy study in patients with metastatic bone disease receiving an antiresorptive agent", "type": "in vivo, human", "conditions": "with denosumab or zoledronic acid", "description": "Denosumab or zoledronic acid are administered according to the typical standard of care for each patient's condition. […] Samples are collected at monthly intervals for monitoring serum and urine levels of calcium, plasma levels of PTH and serum total 25-hydroxyvitamin D. Serum markers of tumor burden and bone metabolism, as well as cancer progression are assessed at 3-month intervals."}, "[7]": {"assay": "Efficacy study in patients with metastatic bone disease, prevention of SREs", "type": "in vivo, human", "conditions": "with denosumab or zoledronic acid", "description": "Denosumab or zoledronic acid are administered according to the typical standard of care for each patient's condition. Patients are monitored for SREs, including by appropriate non-invasive imaging techniques, and serum markers of tumor burden and bone metabolism at 3-month intervals, and at monthly intervals for serum and urine calcium levels and plasma PTH. Cancer progression is monitored at quarterly intervals."}, "[8]": {"conditions": "after 24 months, with denosumab, vs denosumab and Vitamin D3"}, "[9]": {"conditions": "6-month study, compared to placebo"}, "[10]": {"conditions": "compared to antiresorptive plus placebo"}, "[11]": {"conditions": "24-month studies, compared to placebo"}}, "note": "Read-outs that look alike come from different tables or passages of the source.", "data": [{"smiles": "O=P(O)(O)C(O)(Cn1ccnc1)P(=O)(O)O", "note": "[zoledronic acid]", "values": [{"measurement": "patients who developed hypocalcemia", "setting": "[1]", "result": 39, "unit": "%"}]}, {"smiles": "C=C1CC[C@H](O)C/C1=C/C=C1\\CCC[C@]2(C)[C@@H]([C@H](C)CCCC(C)C)CC[C@@H]12", "note": "[Vitamin D3, cholecalciferol]", "values": [{"measurement": "incidence of hypocalcemia and severity of secondary hyperparathyroidism", "setting": "[2]", "result": "occur more frequently"}, {"measurement": "incidence of hypocalcemia and severity of SHPT and hypercalcemia", "setting": "[3]", "result": "more frequently"}, {"measurement": "incidence of hypocalcemia and severity of secondary hyperparathyroidism", "setting": "[4]", "result": "occur more frequently"}]}, {"smiles": "C=C1CC[C@H](O)C/C1=C/C=C1\\CCC[C@]2(C)[C@@H]([C@H](C)CCCC(C)(C)O)CC[C@@H]12", "note": "[25-hydroxyvitamin D3]", "values": [{"measurement": "increases in bone mineral density", "setting": "[2]; [8]", "result": "larger increases"}, {"measurement": "serum PTH levels", "setting": "[2]; [8]", "result": "lower"}, {"measurement": "incidence of hypocalcemia and severity of secondary hyperparathyroidism", "setting": "[2]", "result": "markedly reduced"}, {"measurement": "incidence of hypocalcemia", "setting": "[3]; [8]", "result": "significantly lower"}, {"measurement": "increases in bone mineral density", "setting": "[3]; [8]", "result": "larger increases"}, {"measurement": "serum PTH levels", "setting": "[3]; [8]", "result": "lower"}, {"measurement": "serum levels of 25-hydroxyvitamin D3", "setting": "[3]; [8]", "result": "higher and more consistent"}, {"measurement": "time to first post-treatment SRE", "setting": "[3]; [8]", "result": "significantly delayed"}, {"measurement": "incidence of hypocalcemia and severity of SHPT and hypercalcemia", "setting": "[3]", "result": "markedly reduced"}, {"measurement": "incidence of hypocalcemia", "setting": "[4]; [8]", "result": "significantly lower"}, {"measurement": "increases in bone mineral density", "setting": "[4]; [8]", "result": "larger increases"}, {"measurement": "serum PTH levels", "setting": "[4]; [8]", "result": "lower"}, {"measurement": "time to additional bone metastasis", "setting": "[4]; [8]", "result": "significantly delayed"}, {"measurement": "incidence of hypocalcemia and severity of secondary hyperparathyroidism", "setting": "[4]", "result": "markedly reduced"}, {"measurement": "plasma PTH", "setting": "[5]", "result": "decreases"}, {"measurement": "increase in serum calcium", "setting": "[6]; [9]", "result": "greater increase"}, {"measurement": "plasma PTH", "setting": "[6]; [9]", "result": "decrease"}, {"measurement": "risk of hypocalcemia", "setting": "[6]; [9]", "result": "reduced risk"}, {"measurement": "time to additional bone metastasis", "setting": "[6]; [10]", "result": "increased delay"}, {"measurement": "increase in serum calcium", "setting": "[7]; [11]", "result": "greater increase"}, {"measurement": "plasma PTH", "setting": "[7]; [11]", "result": "decrease"}, {"measurement": "risk of hypocalcemia", "setting": "[7]; [11]", "result": "reduced risk"}, {"measurement": "time to additional bone metastasis or SRE", "setting": "[7]; [10]", "result": "increased delay"}]}]}
